Results taken from patent US20040053884A1, “Preventives or remedies for arthritis” (priority 2001, published 2004).
Structures can show the parent of a compound that is named as a salt.

What was measured:
[1] = tested on: mice with type II collagen-induced arthritis; assay: Test Example 1: N-acetylhydroxyproline and glucosamine in feed, type II collagen-induced arthritis score; assay type: in vivo, DBA/1J mice; conditions: for Scores compared with control (in words): 0.1% added to the feed, compared with no additive (control); for Score of arthritis: 0.1% in feed from day of first collagen administration, mean ±SE, N=20, scale 0-16
Source text: (§1) Unless otherwise noted, in the following test examples, DBA/1J mice produced by Charles River, powder feed CE2 produced by CLEA Japan, N-acetylhydroxyproline produced by Kyowa Hakko Kogyo, D-glucosamine sulfate 2NaCl as glucosamine (Miyako Kagaku) and chondroitin sodium sulfate (Maruha Kagaku) as chondtoitin were used.
It is known that arthritis is induced in DBA/1J mice by administering type II collagen two times.
As the first administration of type II collagen, a solution prepared by mixing an equal amount of type II collagen [Collagen Gijutsu Kenshu Kaisha (MCK)] and Freund's complete adjuvant (Iatron) and emulsifying the mixture using a homogenizer was intradermally administered to 6-week old male DBA/1J mice in an amount of 100 μl per one animal.
Twenty-one days after the first administration of type II collagen, EXAMPLE a solution prepared by mixing an equal amount of type II collagen and Freund's complete adjuvant and emulsifying the mixture using a homogenizer in a similar manner was intradermally administered to the animals in an amount of 100 μl per one animal as the second administration of type II collagen. In this manner, arthritis was induced in mice.
(§2) Starting on the day of the first administration of type II collagen, the mice were given powder feed CE-2 containing no additive as control; powder feed CE-2 containing 0.1% N-acetylhydroxyproline (indicated as AcHYP in Tables 1-1 and 1-2); powder feed CE-2 containing 0.1% glucosamine (D-glucosamine sulfate 2NaCl); and powder feed CE-2 containing 0.05% N-acetylhydroxyproline and 0.05% glucosamine, respectively. At days 24, 28, 31, 34, 38 and 42 after the first administration of type II collagen, the extent of the development of arthritis was scored according to the following indices.
(§3) Scoring was carried out by applying 0-4 points with respect to one of four paws of mice: 0: no symptom; 1: swelling of one finger or swelling (slight) of the ankle; 2: swelling of 1-3 fingers or swelling of the ankle; 3: swelling of 3-5 fingers plus swelling of the ankle; and 4: swelling of all the fingers plus swelling of the ankle. Each mouse was scored the total of the points of 4 paws, namely, 0-16 points.
(§4) Twenty mice were subjected to the test with respect to each of the conditions.
(§5) In the tables, the figures show the scores under different treatment conditions, which are given as mean ±SE (N=20).
(§6) In the tables, “no treatment” means no administration of type II collagen, and “control” means mice were given the feed containing no additive.

[2] = tested on: mice with type II collagen-induced arthritis; assay: Test Example 2: N-acetylhydroxyproline and chondroitin in feed, type II collagen-induced arthritis score; assay type: in vivo, DBA/1J mice; design: key to Score of arthritis: sum of 4 paws scored 0-4 each, 0-16 points; 0 = no symptom; conditions: for Score compared with control (in words): 0.1% added to the feed; for Score of arthritis: 0.1% in feed from day of first collagen administration, mean ±SE, N=20, scale 0-16
Protocol: as §1, §3
An experiment similar to that of Test Example 1 was carried out except that chondroitin was used in place of glucosamine.
(§7) That is, 21 days after the first administration of type II collagen, a solution prepared by mixing an equal amount of type II collagen and Freund's complete adjuvant and emulsifying the mixture using a homogenizer in a similar manner as in Test Example 1 was intradermally administered to the mice in an amount of 100 μl per one animal as the second administration of type II collagen. In this manner, arthritis was induced in mice.
as §2, with “2-1” for “1-1”, “2-2);” for “1-2);”, “chondroitin;” for “glucosamine (D-glucosamine sulfate 2NaCl);”, “chondroitin,” for “glucosamine,”, “23, 27, 30, 33, 36, 40” for “24, 28, 31, 34, 38”, “indices employed in the above Test Example 1.” for “following indices.”
as §4, §5, §6

[3] = tested on: mice with type II collagen-induced arthritis; assay: Test Example 3: N-acetylhydroxyproline, glucosamine and chondroitin in feed, type II collagen-induced arthritis score; assay type: in vivo, DBA/1J mice; conditions: for Score of arthritis: 0.05% of each additive in feed from day of first collagen administration, mean ±SE, N=20, scale 0-16
Protocol: as §1, §3
An experiment similar to that of Test Example 1 was carried out except that glucosamine and chondroitin were used in place of glucosamine.
as §7
Starting on the day of the first administration of type II collagen, the mice were given powder feed CE-2 containing no additive as control; powder feed CE-2 containing 0.05% N-acetylhydroxyproline (indicated as AcHYP in Tables 3-1 and 3-2); powder feed CE-2 containing 0.05% N-acetylhydroxyproline and 0.05% chondroitin; and powder feed CE-2 containing 0.05% N-acetylhydroxyproline, 0.05% glucosamine and 0.05% chondroitin, respectively. At days 24, 28, 31, 35, 38 and 42 after the first administration of type II collagen, the extent of the development of arthritis was scored according to the indices employed in the above Test Example 1.
as §4, §5, §6

[4] = tested on: mice with type II collagen-induced arthritis; assay: Test Example 4: feed given from day 28 (after induction), type II collagen-induced arthritis score; assay type: in vivo, DBA/1J mice; conditions: for Scores compared with control (in words): 0.1% added to the feed from day 28, any of the days after day 33; for Score of arthritis: 0.1% in feed starting at day 28, mean ±SE, N=10, scale 0-16
Protocol: as §1, §3
as §7, with “As in Test Example 1,” for “That is,”
Starting at day 28 after the first administration of type II collagen, the mice were given powder feed CE-2 containing no additive as control; powder feed CE-2 containing 0.1% N-acetylhydroxyproline (indicated as AcHYP in Tables 4-1 and 4-2); powder feed CE-2 containing 0.1% glucosamine; powder feed CE-2 containing 0.05% N-acetylhydroxyproline and 0.05% glucosamine; powder feed CE-2 containing 0.05% glucosamine and 0.05% chondroitin; and powder feed CE-2 containing 0.05% N-acetylhydroxyproline, 0.025% glucosamine and 0.025% chondroitin, respectively. At days 28, 33, 36, 39 and 42 after the first administration of type II collagen, the extent of the development of arthritis was scored according to the indices employed in the above Test Example 1.
Ten mice were subjected to the test with respect to each of the conditions.
In the tables, the figures show the scores under different treatment conditions, which are given as mean ±SE (N=10).
as §6

[5] = tested on: mice with type II collagen-induced arthritis; assay: as above; assay type: in vivo, DBA/1J mice; conditions: day 0 (before feeding); 0.1% in feed starting at day 28; mean ±SE, N=10; scale 0-16
[6] = tested on: animal model for arthritis; conditions: administration after induction of arthritis; J. Drug. Dev., 3, 135-142 (1990); cited from earlier work
arthritis = conditions: Pharmacological Research, 33, 367-373 (1996); cited from earlier work

Molecule	Scores compared with control (in words) [1]	Score of arthritis ([1]; day 0)	Score of arthritis ([1]; day 24)	Score of arthritis ([1]; day 28)	Score of arthritis ([1]; day 31)	Score of arthritis ([1]; day 34)	Score of arthritis ([1]; day 38)	Score of arthritis ([1]; day 42)	Score of arthritis ([2]; day 0)	Score of arthritis ([2]; day 23)	Score of arthritis ([2]; day 27)	Score of arthritis ([2]; day 30)	Score of arthritis ([2]; day 33)	Score of arthritis ([2]; day 36)	Score of arthritis ([2]; day 40)	Score of arthritis ([2]; day 42)	Scores compared with control (in words) [4]	Score of arthritis ([4]; day 28 (start of feeding))	Score of arthritis ([4]; day 33)	Score of arthritis ([4]; day 36)	further results
CC(=O)N1C[C@H](O)C[C@H]1C(=O)O [AcHYP, N-acetylhydroxyproline]	lowering of the scores	0.0 ± 0.0	0.0 ± 0.0	6.5 ± 0.7	9.5 ± 0.8	10.7 ± 0.8	10.8 ± 0.8	10.6 ± 0.8	0.0 ± 0.0	0.1 ± 0.1	3.3 ± 0.7	7.0 ± 0.9	7.8 ± 0.9	7.9 ± 1.0	8.4 ± 0.9	8.8 ± 0.8	slight lowering of the scores	4.3 ± 0.9	9.8 ± 1.0	10.9 ± 1.1	Score compared with control (in words) ([2]; any of the days after day 27): lowering of the score; Scores compared with control (in words) ([3]; 0.05% of each additive in the feed, any of the days after day 24): almost no lowering of the scores; Score of arthritis ([3]; day 0): 0.0 ± 0.0; Score of arthritis ([3]; day 24): 0.2 ± 0.1; Score of arthritis ([3]; day 28): 5.4 ± 0.6; Score of arthritis ([3]; day 31): 8.5 ± 0.7; Score of arthritis ([3]; day 35): 9.4 ± 0.8; Score of arthritis ([3]; day 38): 9.9 ± 0.8; Score of arthritis ([3]; day 42): 9.4 ± 0.7; Score of arthritis ([4]; day 39): 10.7 ± 1.1; Score of arthritis ([4]; day 42): 10.8 ± 1.0; Score of arthritis [5]: 0.0 ± 0.0; Aggravation of arthritis [6]: can prevent aggravation of arthritis; Effect on chondral injury at joints (arthritis): shows no effect; Effect on systemic injury of ear and tail (arthritis): shows a therapeutic effect
N[C@H]1C(O)O[C@H](CO)[C@@H](O)[C@@H]1O (stereo partly drawn) [Glucosamine, D-glucosamine sulfate 2NaCl]	lowering of the scores	0.0 ± 0.0	0.1 ± 0.1	5.8 ± 0.6	7.7 ± 0.7	9.2 ± 0.7	9.5 ± 0.6	9.4 ± 0.6	–	–	–	–	–	–	–	–	slight lowering of the scores	4.3 ± 0.9	9.8 ± 1.2	10.1 ± 1.1	Score of arthritis ([4]; day 39): 10.4 ± 1.0; Score of arthritis ([4]; day 42): 10.6 ± 1.0; Score of arthritis [5]: 0.0 ± 0.0
chondroitin sodium sulfate	–	–	–	–	–	–	–	–	0.0 ± 0.0	0.1 ± 0.1	3.4 ± 0.6	7.8 ± 1.0	9.1 ± 0.9	9.7 ± 0.8	9.9 ± 0.8	9.8 ± 0.7	–	–	–	–	Score compared with control (in words) ([2]; after day 36): almost no lowering of the score; Score compared with control (in words) ([2]; until day 33): slight lowering of the score
